This is an account of results in PMC11217338 (Frontiers in Endocrinology, 2024).

This assay concerns the target T1, rat PXR (rPXR) (Rattus norvegicus, UniProt Q9R1A7).
T1 construct: gene Nr1i2
T1 sequence (Q9R1A7 143-431 limits assumed): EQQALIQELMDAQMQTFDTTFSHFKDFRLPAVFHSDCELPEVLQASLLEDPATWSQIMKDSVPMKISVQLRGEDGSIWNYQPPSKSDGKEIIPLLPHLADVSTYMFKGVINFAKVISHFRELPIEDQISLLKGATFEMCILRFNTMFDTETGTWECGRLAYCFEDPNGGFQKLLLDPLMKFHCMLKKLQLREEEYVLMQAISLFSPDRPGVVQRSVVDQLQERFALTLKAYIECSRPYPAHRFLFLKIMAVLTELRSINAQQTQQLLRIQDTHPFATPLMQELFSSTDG
Description: GAL4-LBD luciferase reporter assay in HepG2 cells, […] CBD. The format is cell-based.

Consider `C=C(C)[C@@H]1CCC(C)=C[C@H]1c1c(O)cc(CCCCC)cc1O` [CBD, Cannabidiol], for which the “GAL4-LBD luciferase reporter assay in HepG2 cells, 10 μM CBD” value is on record as “Except for PXRs, CBD had little effect on activation of the other tested nuclear receptors”.
